The values that follow come from US10650534B2, “Display control and image processing of a cell image” (Sony Corporation, priority 2011, dated 2020).

This series relates to cultured cardiomyocytes. The experiment in a line: Propagation of pulsation in cultured cardiomyocytes after drug administration, shown by two-dimensional color maps of the motion amount absolute value. The format is cell-based. The following applies: for speed of propagation of pulsation / state (direction, path) of propagation of pulsation: compared with organic solvent (control); for state (direction, path) of propagation of pulsation: color maps over 0 to 240 ms; for stop of propagation of pulsation / region without pulsation (motionless region): within the observation region. The text has this:
A drug evaluation apparatus 100 illustrated in FIG. 3 is an apparatus that conducts evaluation of a drug administered to cultured cardiomyocytes 110 by observing a motion of the cardiomyocytes 110. […] The imaging unit 101 images the cultured cardiomyocytes 110 during a predetermined period. That is, the imaging unit 101 obtains a moving image of the cultured cardiomyocytes 110 as an object. The imaging unit 101 images the cultured cardiomyocytes 110 before and after the drug administration. Note that the imaging unit 101 may image the cultured cardiomyocytes 110 several times after the drug administration according to a predetermined condition, such as after a predetermined time having passed, for example. The evaluation index data generation unit 103 performs, in each frame image of the supplied object to be evaluated image data 112, motion detection of the object to be observed (cultured cardiomyocytes 110) for each block that is a subregion obtained by dividing all regions of an image of the object to be observed (cultured cardiomyocytes 110) into a plurality of regions. The evaluation index data generation unit 103 expresses the detected motion of each block as a motion vector, and obtains the magnitude of the motion vector (motion amount). Note that this motion amount is an absolute value, and therefore, hereinafter, the motion amount will be also referred to as a motion amount absolute value. The evaluation unit 104 maps the motion amount absolute value supplied as the evaluation index data 113 into a two-dimensional color map, and evaluates the drug by expressing the state of propagation of pulsation and further, by quantitatively evaluating the state thereof. The evaluation unit 104 outputs the two-dimensional color map and a quantitative evaluation result as an evaluation value 114. The two-dimensional color map indicates the size of a parameter at each position on a plane in color. In this case, the plane represents an observation region of the cultured cardiomyocytes 110, and the color represents the motion amount absolute value (size of the value). That is, a position of the motion amount absolute value is represented by a position on the plane, and the size of the value is represented in color. That is, a distribution of the motion amount absolute value within the observation region is indicated by a change of the color on the plane. Examples of such a two-dimensional color map are illustrated in FIGS. 4 to 6. The eight color maps illustrated in FIG. 4 respectively indicate the distribution of the motion amount absolute value within the observation region, and a position on the color map indicates a position within the observation region and higher color density indicates a larger motion amount absolute value. […] Note that the arrows on the color maps are drawn for the purpose of description, and they are not drawn on actual color maps.

“Also recorded” adds a separate entry of the source.

Consider `CC(C)NCC(O)c1ccc(NS(C)(=O)=O)cc1` (racemic) [DL-sotalol], for which the “speed of propagation of pulsation” value is listed as “the speed of the propagation is slower than the left side”; the “state (direction, path) of propagation of pulsation” value (from here on “state (direction, path)”) was “propagated from an upper left side to a lower right side, but the propagation stops within the observation region”; the “stop of propagation of pulsation / region without pulsation (motionless region)” value is listed as “pulsation is not caused in a part of the observation region in the right side; also recorded: the pulsation is not propagated to the right side portion of the observation region”.
On to `CCCCCCCO` [1-Heptanol], for which the “speed of propagation of pulsation” value is given as “the speed of the propagation is slow” and the “state (direction, path)” value is reported as “linearly propagated as time passes while changing the direction to revolve”.
In the case of `CC1(C)[C@@H](O)CC[C@]2(C)[C@H]3C(=O)C=C4[C@@H]5C[C@@](C)(C(=O)O)CC[C@]5(C)CC[C@@]4(C)[C@]3(C)CC[C@@H]12` [18-β-Glycyrrhetinic acid], the “speed of propagation of pulsation” value is reported as “the speed of the propagation is slow”; the “state (direction, path)” value was “proceeds into various directions”; the “stop of propagation of pulsation / region without pulsation (motionless region)” value is listed as “the propagation of the pulsation temporarily stops”.
